The test addresses T1, FimHtrJ96 (Escherichia coli, UniProt P08191).
T1 construct: coding for the lectin domain of FimH (residues 1-158) with a C-terminal 6-histidine tag; made in house; host or cells: E. coli HB101 (lacking the fim operon), periplasmic extract, plasmid pPKL241
The test is described as follows: biochemical. Format: binding, uropathogenic E. coli strain J96. How it is done:
To measure the dissociation constant for FimH:alkyl or aryl-mannoside binding, two different binding assays were developed. The first binding assay uses [^3H]-mannose. The amount of radioactively labeled mannose bound to FimHtrJ96 was measured at six different concentrations of [^3H]-mannose, and a hyperbolic curve fitted to the resulting data (FIG. 1A). FimHtrJ96 corresponds to the carbohydrate (mannose) binding domain of FimH from the uropathogenic E. coli strain J96. The dissociation equilibrium constant was determined from this graph at the concentration of mannose […], which corresponds to occupation of half of the binding sites.
Surface Plasmon Resonance measurements were performed on a Biacore3000™. In a first experiment, the kinetic constants and maximal binding were determined for the FimH-antibody interaction. Next, a fixed concentration of FimH (close to the KD of the FimH-antibody interaction) in combination with varying concentrations of carbohydrate, were used to determine the dissociation equilibrium constant of the FimH-saccharide interaction in a competition experiment. Every measurement was repeated at least twice, including testing the variation between different protein and saccharide batches.
To eliminate the possibility of different binding strength for full length FimH and FimHtrJ96, the binding of alpha-D-mannose to FimC:FimH complex was also measured. […] The inhibition of [^3H]-mannose binding was used in a displacement assay to determine the dissociation constant for a synthetic butyl mannoside by measuring the amount of [^3H]-mannose bound to the protein in the presence of increasing amounts of the inhibitor (FIG. 1B). […] To investigate the effect of sequential addition of methyl groups to the O1 oxygen of D-mannose, a series of alkyl mannosides were synthesized and the dissociation constants determined using the [^3H]-mannose displacement assay and by surface plasmon resonance (Table 1).
Surface Plasmon Resonance measurements were performed on a Biacore3000™. The Fab fragments of a monoclonal antibody against FimH were covalently immobilised via lysines at 1000 Resonance Units (1000 pg ligand/mm^2) in flowcell Fc2 on a CM5 biasensor chip (BIAapplications Handbook, Biacore AB, Uppsala, Sweden). Immobilisation buffer was 100 mM NaAc pH 5.0 with 100 mM NaCl. The reference flowcell Fc1 was left blank.
Binding of FimH to the immobilized antibody was measured with a Biacore 3000 instrument in running buffer (phosphate buffered saline with 0.005% surfactant P20 and 3 mM EDTA), on both flowcells Fc1 and Fc2 simultaneously, at a flow rate of 30 μl/min and at 25° C. Complete dissociation of FimH was done with running buffer before starting a new binding cycle. For all measurements, the association time was 3 minutes, the dissociation time was 30 min. All binding cycles were performed in duplicate, including a zero concentration cycle of FimH (injection of running buffer).
In a first experiment, the kinetic constants, ka and kd, and the maximal binding Rmax, were determined for the FimH-antibody interaction (FimH concentrations (nM): 2000, 1000, 500, 250, 125, 62.5, 31.25, 15.625, 7.818, 3.911, 1.957, 0). All analyses were performed with the BIAeval software. A Langmuir binding isotherm with a 1:1 stoichiometry was fitted to the data, from which the kinetic constants and maximal binding were obtained.
In the next experiment, samples containing a fixed concentration of FimH (close to the KD of the FimH-antibody interaction) in combination with varying concentrations of saccharide, were used to determine the dissociation constant of the FimH-saccharide interaction in a competition experiment. First, ten-fold dilutions of the saccharide solution were used to determine the concentration range for binding of the saccharide to FimH.

The values below come from patent US20080171706A1, “Anti-Adhesive Compounds to Prevent and Treat Bacterial Infections” (priority 2004, published 2008).

Where two headings read alike, the source gives them in different places.

T1 sequence (P08191 22-179): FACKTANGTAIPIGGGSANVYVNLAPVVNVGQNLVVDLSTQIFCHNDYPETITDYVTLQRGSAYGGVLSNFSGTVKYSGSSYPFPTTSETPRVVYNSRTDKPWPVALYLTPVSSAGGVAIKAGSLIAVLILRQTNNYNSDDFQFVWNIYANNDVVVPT

By Kd is commonly meant the concentration at which binding is half-saturated. In the case of `OC[C@H]1O[C@H](O)[C@@H](O)[C@@H](O)[C@@H]1O` [Mannose, α-D-mannose], the Kd is 2.3 µM. Moreover, the Kd (Table 1, O1 alkyl and aryl mannosides, SPR and displacement binding experiments) worked out at 2.3 µM. Also, for the setting “Table 1, calculated from KD”, the “ΔG°” value was -7.6 kcal/mol. Also, where the note is “Table 3, calculated from KD”, the “ΔG° J96” value is -7.6 kcal/mol. Further, for the setting “read-out: KD J96, Table 3, [3H]-mannose displacement assay (mannose measured directly)”, the Kd is 2.3 µM.
